Results as given in the NIST ThermoML archive (doi:10.1021/je100967k).
Values joined by “and” are separate entries in the source; they are usually repeats but may differ in a detail not shown here. Identical values can stand only once. ± gives the expanded uncertainty stated by the source.

Legend:
[1] = 101 kPa, Liquid; for speed of sound: Pulse-echo method
[2] = refractive index (Na D-line) (dimensionless); details: 101.33 kPa, Liquid, Standard Abbe refractometry
[3] = refractive index (Na D-line) (dimensionless); xn = mol fraction of the nth substance listed; details: 101 kPa, Liquid, Standard Abbe refractometry
[4] = xn = mol fraction of the nth substance listed; details: 101 kPa, Liquid; for speed of sound: Pulse-echo method

NCCO [2-aminoethan-1-ol]
Details	mass density, [1] [kg/m3]	refractive index, [2]	speed of sound, [1] [m/s]	viscosity, [1] [mPa·s]
293.15 K	1016.65 ± 0.52	1.4525 ± 0.0005	1735.9 ± 1.4	24.61 ± 0.35
303.15 K	1008.74 ± 0.51	1.4488 ± 0.0005	1703.7 ± 1.4	14.96 ± 0.24
313.15 K	1000.77 ± 0.49	1.4449 ± 0.0005	1671.2 ± 1.4	9.839 ± 0.15
323.15 K	992.75 ± 0.5	1.4417 ± 0.0005	1638.8 ± 1.3	6.902 ± 0.11

CN1CCCC1=O [N-methylpyrrolidone]
Details	mass density, [1] [kg/m3]	refractive index, [2]	speed of sound, [1] [m/s]	viscosity, [1] [mPa·s]
293.15 K	1032.87 ± 0.55	1.4706 ± 0.0006 and 1.4691 ± 0.0006	1565.3 ± 1.4	1.858 ± 0.03
303.15 K	1023.95 ± 0.53	1.4664 ± 0.0006 and 1.4647 ± 0.0006	1526.5 ± 1.3	1.553 ± 0.025
313.15 K	1015.03 ± 0.52	1.4621 ± 0.0006 and 1.4603 ± 0.0006	1487.8 ± 1.3	1.324 ± 0.022
323.15 K	1006.1 ± 0.5	1.4576 ± 0.0006 and 1.4559 ± 0.0006	1450.2 ± 1.3	1.146 ± 0.019

CN1CCCC1=O [N-methylpyrrolidone] + NCCO
x1 = 1
Details	mass density, [4] [kg/m3]	refractive index, [3]	speed of sound, [4] [m/s]	viscosity, [4] [mPa·s]
293.15 K	1032.87 ± 0.55	1.4691 ± 0.0006	1565.3 ± 1.4	1.858 ± 0.03
303.15 K	1023.95 ± 0.53	1.4647 ± 0.0006	1526.5 ± 1.3	1.553 ± 0.025
313.15 K	1015.03 ± 0.52	1.4603 ± 0.0006	1487.8 ± 1.3	1.324 ± 0.022
323.15 K	1006.1 ± 0.5	1.4559 ± 0.0006	1450.2 ± 1.3	1.146 ± 0.019

CCO [ethanol]
Details	mass density, [1] [kg/m3]	refractive index, [2]	speed of sound, [1] [m/s]	viscosity, [1] [mPa·s]
293.15 K	789.54 ± 0.73	1.3616 ± 0.0005	1162.3 ± 0.9	1.116 ± 0.018
303.15 K	780.94 ± 0.75	1.3574 ± 0.0005	1128.9 ± 0.9	0.9502 ± 0.016
313.15 K	772.2 ± 0.77	1.3532 ± 0.0005	1095.4 ± 0.9	0.7899 ± 0.013
323.15 K	763.29 ± 0.78	1.3493 ± 0.0005	1071.9 ± 0.9	0.6304 ± 0.011

CCO [ethanol] + CN1CCCC1=O
x2 = 0
Details	mass density, [4] [kg/m3]	refractive index, [3]	speed of sound, [4] [m/s]	viscosity, [4] [mPa·s]
293.15 K	789.54 ± 0.73	1.3616 ± 0.0005	1162.3 ± 0.9	1.116 ± 0.018
303.15 K	780.94 ± 0.75	1.3574 ± 0.0005	1128.9 ± 0.9	0.9502 ± 0.016
313.15 K	772.2 ± 0.77	1.3532 ± 0.0005	1095.4 ± 0.9	0.7899 ± 0.013
323.15 K	763.29 ± 0.78	1.3493 ± 0.0005	1071.9 ± 0.9	0.6304 ± 0.011
